Measured values taken from patent US20230109489A1, “Compound and Use Thereof” (FELIQS CORPORATION, priority 2020, published 2023).

Tests used:
[1] = LO. scavenging ability, liposome-Fe2+ system (Fe stimulation), NBD-TEEPO fluorescence; assay type: biochemical; conditions: for R/L: ratio of activity value (R) of LO. scavenging ability to activity value (L) of LOO. scavenging ability / Fe stimulation (R): activity value of LO. scavenging ability: test compound 10 μmol/l; for Fe stimulation (R): activity value of LO. scavenging ability: FeSO4 1.0 mmol/l, liposomes, 37° C., 180 minutes, 1−(AUCSample/AUCControl)
Source text: As described above, the compound of the present invention has alkoxyl radical scavenging ability. The “alkoxyl radical scavenging ability” in the present invention means the ability to scavenge LO., for example. The LO. scavenging ability can be evaluated on the basis of its activity value, for example. The activity value of the LO. scavenging ability can be evaluated, for example, using the liposome-Fe^2+ system disclosed in WO 2019/009355. More specifically, it can be measured in a manner described in Example 1 below. As a specific example, the activity value of the LO. scavenging ability can be measured by performing the following steps (i) to (v): • (i) preparing a buffer solution containing a compound represented by the formula (A) and liposomes; • (ii) adding a divalent iron ion source material; • (iii) adding a test compound; • […] measuring a fluorescence; and • (v) determining the activity value of the test compound as per the following equation using the result of the fluorescence measurement.
Activity value of LO. scavenging ability=1−(AUCSample/AUCControl)
AUCSample: the area under the curve calculated from the fluorescence intensity measured in the presence of Fe^2+ and the test compound (n=1)
AUCControl: the area under the curve calculated from the fluorescence intensity measured in the presence of Fe^2+ and in the absence of the test compound
(§1) In step (i), the concentration of the compound represented by the formula (A) is, for example, 1 to 20 μmol/l and typically 5 μmol/l. The liposomes are prepared from, for example, egg-yolk phosphatidylcholine (Egg PC) and dihexadecyl hydrogen phosphate (DCP). The concentration of the egg-yolk phosphatidylcholine is, for example, 5 to 10 mg/ml and typically 2.5 mg/l. The concentration of the dihexadecyl hydrogen phosphate is, for example, 0.01 to 1 mg/ml and typically 0.1 mg/ml.
In step (ii), the concentration of the divalent iron ion source material is, for example, 0.5 to 5 mmol/l and typically 1 mmol/l. The divalent iron ion source material is, for example, iron(II) sulfate.
In step (iii), the concentration of the test compound is 5 to 100 μmol/l. A specific example of the concentration is 10 μmol/l.
In step (iv), the wavelength of excitation light at the time of measuring the fluorescence can be set to, for example, 470 nm; the fluorescence wavelength can be set to, for example, 530 nm; and the fluorescence intensity at 530 nm can be measured. The period for measuring the fluorescence is, for example, from 0 to 240 minutes at intervals of 0.1 to 5 minutes and typically 180 minutes at intervals of 3 minutes, with step (iii) being the start time, for example.
The following solutions were prepared: a solution A containing liposomes (10 mg/ml Egg PC, 0.4 mg/ml DCP) and 20 μmol/l NBD-TEEPO compound (compound represented by the formula (A)) in phosphate buffer (10 mmol/l, pH 7.4, 2.0% acetonitrile); and a solution B containing 4.0 mmol/l FeSO4 in distilled water. A 10 μl aliquot of each of the solutions A and B was dispensed using a Multidrop Combi (Thermo Fisher Scientific), and these aliquots were mixed together. The final concentrations of the respective components in the phosphate buffer (10 mmol/l, pH 7.4, 0.5% acetonitrile, 1% dimethyl sulfoxide (DMSO)) were as follows: the liposomes (2.5 mg/ml Egg PC, 0.1 mg/ml DCP), the NBD-TEEPO compound (5.0 μmol/l), a test compound (10 μmol/l), and FeSO4 (1.0 mmol/l). As the test compound, the compounds represented by the formulae (3) to (5) and (7) to (10) were used as compounds of examples, the compound (methyldopa) represented by the formula (1a) was used as a compound of a comparative example, and edaravone and a SCREEN-WELL® FDA-approved drug library (Enzo Life Sciences) were used as reference examples. The test compounds were dissolved in DMSO. […]

[2] = LOO. scavenging ability, liposome-AAPH system (AAPH stimulation), NBD-TEEPO fluorescence; assay type: biochemical; set-up: key: activity = 1 − (FluSample−FluBackground)/(FluControl−FluBackground); conditions: test compound 10 μmol/l, AAPH 20 mmol/l, liposomes, 37° C., after 40 minutes
Source text: As described above, the compound of the present invention has peroxyl radical scavenging ability. “Peroxyl radical scavenging ability” in the present invention means the ability to scavenge LOO., for example. The LOO. scavenging ability can be evaluated on the basis of its activity value, for example. The activity value of the LOO. scavenging ability can be evaluated using, for example, the liposome-AAPH (2,2′-azobis(2-amidinopropane)dihydrochloride) system disclosed in WO 2019/009355. More specifically, it can be measured in a manner described in Example 1 below. As a specific example, the activity value of the LOO. scavenging ability can be measured by performing the following steps (vi) to (x): • (vi) preparing a buffer solution containing a compound represented by the formula (A) and liposomes; • (vii) adding 2,2′-azobis(2-amidinopropane)dihydrochloride; • (viii) adding a test compound; • […] measuring a fluorescence; and • (x) determining the activity value of the test compound as per the following equation using the result of the fluorescence measurement.
Activity value of LOO. scavenging ability=1−(FluSample−FluBackground)/(FluControl−FluBackground)
Flusampie: the fluorescence intensity measured in the presence of AAPH and the test compound (n=1)
FluBackground: the fluorescence intensity measured in the absence of AAPH
FluControl: the fluorescence intensity measured in the presence of AAPH and in the absence of the test compound
as §1, with “(vi),” for “(i),”, “phosphatidylcholine” for “phosphatidylcholine (Egg PC)”, “phosphate.” for “phosphate (DCP).”, “mg/ml.” for “mg/l.”
In step (vii), the concentration of AAPH is, for example, 5 to 50 mmol/l and typically 20 mmol/l.
In step (viii), the concentration of the test compound is 5 to 100 μmol/l. A specific example of the concentration is 10 μmol/l.
In step (ix), the wavelength of excitation light at the time of measuring the fluorescence can be set to, for example, 470 nm; the fluorescence wavelength can be set to, for example, 530 nm; and the fluorescence intensity at 530 nm can be measured. The measurement of the fluorescence is performed, for example, after 1 to 120 minutes has elapsed and typically after 30 to 40 minutes has elapsed since step (viii).
The following solutions were prepared: a solution A containing liposomes (10 mg/ml Egg PC, 0.4 mg/ml DCP) and NBD-TEEPO compound (20 μmol/l) in phosphate buffer (10 mmol/l, pH 7.4, 2.0% acetonitrile); and a solution B containing 80 mmol/l AAPH in phosphate buffer (10 mmol/l, pH 7.4). A 10 μl aliquot of each of the solutions A and B was dispensed using a Multidrop Combi, and these aliquots were mixed together. The final concentrations of the respective components in the phosphate buffer (10 mmol/l, pH 7.4, 0.5% acetonitrile, 1% DMSO) were as follows: the liposomes (2.5 mg/ml Egg PC, 0.1 mg/ml DCP), the NBD-TEEPO compound (5.0 μmol/l), each of the test compounds (10 μmol/l), and AAPH (20 mmol/l).
While incubating the thus-obtained mixture at 37° C., the fluorescence intensity was measured after 40 minutes had elapsed since the mixing of the components. The fluorescence intensity was measured at an excitation wavelength of 470 nm and a fluorescence wavelength of 530 nm. Then, on the basis of the thus-measured fluorescence intensities, the activity value of the LOO. scavenging ability was calculated as per the above-described equation.

SMILES | R/L: ratio of activity value (R) of LO. scavenging ability to activity value (L) of LOO. scavenging ability [1] | Fe stimulation (R): activity value of LO. scavenging ability [1] | AAPH stimulation (L): activity value of LOO. scavenging ability [2] | balance between the LO. scavenging ability and the LOO. scavenging ability (result in words) [1]
CCOC(=O)[C@@](C)(N)Cc1ccc(O)c(O)c1 [(10)] | 0.78 | 0.517 | 0.663 | –
CCCCOC(=O)[C@@](C)(N)Cc1ccc(O)c(O)c1 [Formula (9), butyl (S)-2-amino-3-(3,4-dihydroxyphenyl)-2-methylpropanoate] | 1.04 | 0.313 | 0.301 | –
CC(C)(C)OC(=O)[C@@](C)(N)Cc1ccc(O)c(O)c1 [Formula (4), t-butyl (S)-2-amino-3-(3,4-dihydroxyphenyl)-2-methylpropanoate] | 1.07 | 0.654 | 0.610 | –
CCC(C)OC(=O)[C@@](C)(N)Cc1ccc(O)c(O)c1 (stereo partly drawn) [Formula (3), s-butyl (2S)-2-amino-3-(3,4-dihydroxyphenyl)-2-methylpropanoate] | 1.04 | 0.754 | 0.726 | –
CC1=NN(c2ccccc2)C(=O)C1 [Edaravone, 5-methyl-2-phenyl-2,4-dihydro-3H-pyrazol-3-one, reference compound] | 0.98 | 0.288 | 0.293 | approximately the same level of scavenging ability against LO. and LOO.
CCCOC(=O)[C@@](C)(N)Cc1ccc(O)c(O)c1 [Formula (7), propyl (S)-2-amino-3-(3,4-dihydroxyphenyl)-2-methylpropanoate] | 0.88 | 0.454 | 0.517 | –
CC(C)COC(=O)[C@@](C)(N)Cc1ccc(O)c(O)c1 [Formula (5), isobutyl (S)-2-amino-3-(3,4-dihydroxyphenyl)-2-methylpropanoate] | 1.19 | 0.539 | 0.452 | –
CC(C)OC(=O)[C@@](C)(N)Cc1ccc(O)c(O)c1 [Formula (8), isopropyl (S)-2-amino-3-(3,4-dihydroxyphenyl)-2-methylpropanoate] | 0.95 | 0.327 | 0.346 | –
